# Test results as given in patent publication EP2349249B1, “SYNERGISTIC COMPOSITION FOR RECOVERY AND REDUCTION OF MILD ISCHEMIC DAMAGE” (Giellepi S.p.A., priority 2008, dated 2010).
# What was measured:
# H9c2 cells [1] = assay: MTT cell viability assay in doxorubicin-treated cells; format: cell-based; conditions: H9c2 cells treated for 24 hours with 0.5 µM doxorubicin; for minimal effective concentration: Rattus norvegicus, MTT dose-response curve, read-out: minimum effective concentration required to improve viability (sufficient to induce protection)
# Description: Cells were seeded at a concentration of 1.8x10^3/well in 96-well plates and incubated at 37°C for 24 hours. Cells were then incubated for additional 24 hours after addition of water or doxorubicin (0.5 µM final concentration) in presence of different concentrations of Cr and/or Rib, as indicated in the figures. Cell viability was determined by the 2-(4,5-dimethyltriazol-2-yl)-2,5-diphenyl tetrazolium bromide assay (MTT, Sigma, St Louis, Mo). Briefly, after addition to each well of 20µl of the MTT solution in PBS at a concentration of 5 mg/ml, cells were incubated at 37°C for 4 hours. After removal of the supernatant, 100 µl of DMSO were added to dissolve the formazan salts produced and optical density (OD) was read at λ=540 nm. For each treatment, five replicates were performed. The viability index was calculated, for each treatment, as ODx/OD0, where ODx and OD0 are the average ODs at time x and at time zero.
# The optimal working concentration was determined by a dose-response curve using the MTT assay (vital dye staining) in presence of Creatine and Ribose. To test the efficacy of creatine and ribose in maintaining cellular energy homeostasis, H9c2 cells were treated with doxorubicin, a well-known cardiotoxic agent that causes mitochondrial damage resulting in production of reactive oxygen species.
# H9c2 cells [2] = assay: Cell cycle profile by flow cytometry (propidium iodide) in simulated ischemia; format: cell-based; conditions: ischemic H9c2 cells; 2.5 mM Creatine and/or 5 mM Ribose
# Description: The cell cycle profile was analyzed by flow cytometry after DNA staining with propidium iodide (PI, Sigma, St. Louis, Mo.). Cells were washed with PBS and fixed with 70% ethanol at -20°C, centrifuged (15 min at 1800 rpm), resuspended in 1 ml PBS containing 50 µg/ml PI and incubated for 1 hour at room temperature Cells were then analyzed by flow cytometry in a FACSorter (Becton Dickinson). The percentage of cells in different phases of the cell cycle was calculated using the CellQuest software program (Becton Dickinson).
smiles,measurement,setting,value
"CN(CC(=O)O)C(=N)N.O [Creatine, Creatine monohydrate]",minimal effective concentration,H9c2 cells [1],2500 µM
same,change of the percentage of cells progressing from G1 to S phase,H9c2 cells [2],did not change
"O=C[C@H](O)[C@H](O)[C@H](O)CO [Ribose, D-ribose]",minimal effective concentration,H9c2 cells [1],5000 µM
same,change of the percentage of cells progressing from G1 to S phase,H9c2 cells [2],did not change
"COc1cccc2c1C(=O)c1c(O)c3c(c(O)c1C2=O)C[C@@](O)(C(=O)CO)C[C@@H]3O[C@H]1C[C@H](N)[C@H](O)[C@H](C)O1 [Doxo, doxorubicin, reference compound]",decrease of viability compared to untreated cells,H9c2 cells [1]; MTT,35%
